Assay: refractive index (other wavelength) (dimensionless); xn = mol fraction of the nth substance listed
Conditions: 101 kPa, Liquid, Standard Abbe refractometry

c1ccc2c(c1)CCCC2 [1,2,3,4-tetrahydronaphthalene] + CCCCCCCCCCCC
refractive index
Conditions	x1 = 0.1014	x1 = 0.2024	x1 = 0.3032	x1 = 0.4036	x1 = 0.5038	x1 = 0.6036	x1 = 0.7032	x1 = 0.8024	x1 = 0.9014
293.15 K, Wavelength=436.1 nm	1.44127	1.45203	1.46314	1.47515	1.48812	1.50126	1.51481	1.52971	1.54558
293.15 K, Wavelength=513.9 nm	1.43473	1.44489	1.45538	1.46671	1.47843	1.49106	1.50417	1.51804	1.53275
293.15 K, Wavelength=589.3 nm	1.43105	1.44086	1.45101	1.46197	1.47329	1.48552	1.49803	1.51156	1.52591
293.15 K, Wavelength=633.2 nm	1.42949	1.43917	1.44918	1.45999	1.47113	1.48318	1.49553	1.50887	1.52288
293.15 K, Wavelength=657.2 nm	1.42878	1.43896	1.44835	1.45921	1.47078	1.48194	1.4944	1.50801	1.52229
298.15 K, Wavelength=436.1 nm	1.439	1.44978	1.46073	1.47277	1.48561	1.49875	1.51238	1.52724	1.54301
298.15 K, Wavelength=513.9 nm	1.43249	1.44267	1.4533	1.46438	1.47612	1.48874	1.50164	1.51563	1.53046
298.15 K, Wavelength=589.3 nm	1.42884	1.43868	1.44896	1.45965	1.47078	1.48302	1.4955	1.50927	1.52353
298.15 K, Wavelength=633.2 nm	1.42729	1.43699	1.44692	1.45768	1.4689	1.4807	1.4932	1.50652	1.52049
298.15 K, Wavelength=657.2 nm	1.42675	1.43623	1.44627	1.45678	1.46851	1.47967	1.49181	1.50529	1.5199
303.15 K, Wavelength=436.1 nm	1.43671	1.44738	1.45818	1.4705	1.48295	1.49619	1.50983	1.52452	1.54034
303.15 K, Wavelength=513.9 nm	1.43024	1.44033	1.45084	1.46216	1.47359	1.48633	1.49917	1.51321	1.52785
303.15 K, Wavelength=589.3 nm	1.42659	1.43636	1.44635	1.45733	1.46841	1.48085	1.49318	1.50685	1.52095
303.15 K, Wavelength=633.2 nm	1.42505	1.4347	1.44438	1.45549	1.46668	1.47855	1.49077	1.50415	1.51798
303.15 K, Wavelength=657.2 nm	1.42434	1.434	1.44387	1.45441	1.46615	1.47729	1.48949	1.50284	1.51741
